Source: patent US5023364A, “Phenoxyalkylcarboxylic acid derivatives and process for their preparation” (Kyorin Pharmaceutical Co., Ltd., priority 1987, dated 1991)

Tested on: leukotriene D4 -induced bronchoconstriction
Assay: Inhibition of bronchoconstriction in guinea pigs (leukotriene D4-induced, modified Konzett-Rossler method)
Type: in vivo, Male Hartley guinea pig
Conditions: p.o., 2 hours before leukotriene D4 challenge (3 μg/kg, i.v.)
Description: Inhibition of bronchoconstriction in guinea pigs
Male Hartley guinea pig weighing about 450 g was anesthetized with sodium pentobarbital (30 mg/kg,i.p.), and the changes in transpulmonary pressure was measured by modifying the method of Konzett-Rossler (J. Harvey, et al., J. Pharmacol. Method. 9, 147-155, 1983) under an artificial ventilation. Bronchoconstrictor response was induced by bolus injection of leukotriene D4 (3 μg/kg,i.v.) from jugular vein. Animal was treated with indomethacin (10 mg/kg,i.v.) and propranolol (1 mg/kg,i.v.) before leukotriene D4 challenge. Test compounds suspended in 5% Gum Arabic solution were administered orally 2 hours before leukotriene D4 challenge.

CCCc1c(OCCCOc2ccc(C(C)=O)c(OCCCCC(=O)O)c2CCC)ccc(C(C)=O)c1O [Example 7, 5-[6-acetyl-3-[3(4-acetyl-3-hydroxy-2-propylphenoxy)propoxy]-2-propylphenoxy]pentanoic acid]
Inhibition (%) (12.5 mg/kg): 45.2%
Inhibition (%) (50 mg/kg): 94.8%

CCCc1c(OCCCOc2ccc(C(C)=O)c(OCCCC(=O)O)c2CCC)ccc(C(C)=O)c1O [Example 5, 4-[6-Acetyl-3-[3-(4-acetyl-3-hydroxy-2-propylphenoxy)propoxy]-2-propylphenoxy]butanoic acid]
Inhibition (%) (1.5 mg/kg): 27.4%
Inhibition (%) (6.25 mg/kg): 41.7%
Inhibition (%) (12.5 mg/kg): 59.0%
Inhibition (%) (50 mg/kg): 82.7%

CCCc1c(OCCCCCOc2c(C(C)=O)ccc(OCC(=O)O)c2CCC)ccc(C(C)=O)c1O [Ref. 2, [4Acetyl-3-[5-(4-acetyl-3-hydroxy-2-propylphenoxy)-pentyloxy]-2-propylpheoxy]acetic acid, reference compound]
Inhibition (%) (50 mg/kg): 16.9%

CCCc1c(OCCCOc2ccc(C(C)=O)c(OCC(=O)O)c2CCC)ccc(C(C)=O)c1O [Ref. 1, [6-acetyl-3-[3-(4-acetyl3-hydroxy-2-propylphenoxy)propoxy]-2-propylphenoxy]acetic acid, reference compound]
Inhibition (%) (12.5 mg/kg): -12.1%
Inhibition (%) (50 mg/kg): 56.1%

CCCc1c(OCCOc2ccc(C(C)=O)c(OCCCC(=O)O)c2CCC)ccc(C(C)=O)c1O [Example 6, 4-[6-acetyl-3-[2-(4-acetyl-3-hydroxy-2-propylphenoxy)-ethoxy]-2-propylphenoxy]butanoic acid]
Inhibition (%) (12.5 mg/kg): 28.6%
Inhibition (%) (50 mg/kg): 86.6%

CCCc1c(OCCCCOc2ccc(C(C)=O)c(OCCCC(=O)O)c2CCC)ccc(C(C)=O)c1O [Example 8, 4-[6-acetyl-3-[4-(4-acetyl-3-hydroxy-2-propylphenoxy)butoxy]-2-propylphenoxy]butanoic acid]
Inhibition (%) (50 mg/kg): 83.1%
